The record followed here is US9988400B2 (Genentech, Inc., priority 2013, dated 2018).

As usually defined, the EC50 is the concentration needed to bring the measured effect to its halfway point.

T1 sequence (Q12879 23-1464, other chains not shown): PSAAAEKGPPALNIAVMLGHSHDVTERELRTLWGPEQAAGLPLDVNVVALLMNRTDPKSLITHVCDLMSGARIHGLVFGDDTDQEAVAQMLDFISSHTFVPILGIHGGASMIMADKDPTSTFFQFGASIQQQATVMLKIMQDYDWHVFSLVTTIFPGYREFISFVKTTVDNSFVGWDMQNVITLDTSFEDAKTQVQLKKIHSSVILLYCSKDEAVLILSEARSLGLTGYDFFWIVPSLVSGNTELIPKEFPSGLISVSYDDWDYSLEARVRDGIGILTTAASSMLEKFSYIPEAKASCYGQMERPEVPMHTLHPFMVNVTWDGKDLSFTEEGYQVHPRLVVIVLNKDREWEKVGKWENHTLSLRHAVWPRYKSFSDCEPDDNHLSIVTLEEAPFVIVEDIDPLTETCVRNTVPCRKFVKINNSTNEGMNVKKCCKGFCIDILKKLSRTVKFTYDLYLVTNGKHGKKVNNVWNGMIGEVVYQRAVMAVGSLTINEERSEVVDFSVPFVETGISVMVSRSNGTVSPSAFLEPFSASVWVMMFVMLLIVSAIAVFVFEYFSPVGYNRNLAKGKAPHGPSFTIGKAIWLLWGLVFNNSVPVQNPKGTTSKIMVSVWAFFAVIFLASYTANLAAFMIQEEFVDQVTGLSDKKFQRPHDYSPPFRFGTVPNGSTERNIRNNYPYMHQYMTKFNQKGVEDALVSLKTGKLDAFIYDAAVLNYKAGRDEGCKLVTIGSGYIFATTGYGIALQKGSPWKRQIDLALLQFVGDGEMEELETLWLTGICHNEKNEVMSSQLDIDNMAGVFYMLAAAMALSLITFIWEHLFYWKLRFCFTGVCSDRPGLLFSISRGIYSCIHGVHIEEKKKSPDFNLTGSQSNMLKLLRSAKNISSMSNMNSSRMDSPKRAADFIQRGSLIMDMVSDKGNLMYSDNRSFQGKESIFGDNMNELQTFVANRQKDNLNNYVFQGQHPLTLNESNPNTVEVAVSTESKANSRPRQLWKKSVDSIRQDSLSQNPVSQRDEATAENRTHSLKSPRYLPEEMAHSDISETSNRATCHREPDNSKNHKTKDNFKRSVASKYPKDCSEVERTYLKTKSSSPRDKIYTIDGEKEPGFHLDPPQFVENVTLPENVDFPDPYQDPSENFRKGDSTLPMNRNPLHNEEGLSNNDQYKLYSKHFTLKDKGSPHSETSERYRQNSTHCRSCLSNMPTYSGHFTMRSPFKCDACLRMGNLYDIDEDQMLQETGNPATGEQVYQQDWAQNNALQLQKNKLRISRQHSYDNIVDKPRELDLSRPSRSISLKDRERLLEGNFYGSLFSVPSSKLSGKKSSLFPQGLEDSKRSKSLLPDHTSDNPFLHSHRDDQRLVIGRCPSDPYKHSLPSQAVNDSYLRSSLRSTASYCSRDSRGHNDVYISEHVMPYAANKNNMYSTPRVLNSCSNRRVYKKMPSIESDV

This assay concerns the target T1, HEK cells stably transfected with tetracycline inducible hNR1 and hNR2A (Homo sapiens, UniProt Q05586+Q12879).
T1 construct: expressed in transfected cells; host or cells: HEK cells, stably transfected, tetracycline/doxycycline inducible
The experiment in a line: Assay 1: Cell-Based Assay, cytosolic calcium response to positive allosteric modulators (with 30 μM glycine and 300 nM L-glutamate, EC30). The conditions noted are these: Table 3; cytosolic calcium response, with 30 μM glycine and 300 nM L-glutamate (EC30); — = no plateau was reached. An outline of the steps:
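Cells induced 24 h with 7.5 μg mL^−1 doxycycline plus 500 μM (+)-ketamine, loaded 60 min at 37 °C with calcium dye in Mg-free HBSS (1.8 mM Ca, probenecid, 10 μM (+)-ketamine, pH 7.15). Peak RFU over 5 min after compound addition, scaled to 100 μM L-glutamate (100%) and 0 μM (0%); four-parameter Hill fit for EC50, max % if no plateau.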
On to `CCNC(=O)c1c(C)sc2nc(Cc3c(F)ccc(F)c3F)cc(=O)n12` [compound 2, N-ethyl-2-methyl-5-oxo-7-[(2,3,6-trifluorophenyl)methyl]thiazolo[3,2-a]pyrimidine-3-carboxamide], for which the EC50 worked out at 33.7 µM. For `Cc1sc2nc(Cc3cccc(C#N)c3F)cc(=O)n2c1-c1ncco1` [compound 3, 2-fluoro-3-[(2-methyl-3-oxazol-2-yl-5-oxo-thiazolo[3,2-a]pyrimidin-7-yl)methyl]benzonitrile] the value was 10.9 µM; for `CCNC(=O)c1c(C)sc2nc(Cc3cc(C#N)cc(C4CC4)c3F)cc(=O)n12` [compound 4, 7-[(5-cyano-3-cyclopropyl-2-fluoro-phenyl)methyl]-N-ethyl-2-methyl-5-oxo-thiazolo[3,2-a]pyrimidine-3-carboxamide], 3.88 µM.

Take `CCNC(=O)c1c(C)sc2nc(Cc3cccc(OC)c3F)cc(=O)n12` [compound 5, N-ethyl-7-[(2-fluoro-3-methoxy-phenyl)methyl]-2-methyl-5-oxo-thiazolo[3,2-a]pyrimidine-3-carboxamide]: the EC50 was found to be 15.1 µM. With `CNC(=O)c1c(C)sc2nc(Cc3cccc(C4CC4)c3F)c(F)c(=O)n12` [compound 6, 7-[(3-cyclopropyl-2-fluoro-phenyl)methyl]-6-fluoro-N,2-dimethyl-5-oxo-thiazolo[3,2-a]pyrimidine-3-carboxamide] the figure was 0.753 µM.

As for `CNC(=O)Cc1c(C)sc2nc(Cc3cccc(Cl)c3F)cc(=O)n12` [compound 7, 2-[7-[(3-chloro-2-fluoro-phenyl)methyl]-2-methyl-5-oxo-thiazolo[3,2-a]pyrimidin-3-yl]-N-methyl-acetamide], the concentration for a half-maximal effect (EC50) was found to be 9.73 µM. For `CCNC(=O)c1c(C)sc2nc(Cc3cccc(Cl)c3F)c(F)c(=O)n12` [compound 8, 7-[(3-chloro-2-fluoro-phenyl)methyl]-N-ethyl-6-fluoro-2-methyl-5-oxo-thiazolo[3,2-a]pyrimidine-3-carboxamide] the value was 2.55 µM. Regarding `CNC(=O)c1c(C)sc2nc(Cc3cc(F)c(F)cc3OC)cc(=O)n12` [compound 9, 7-[(4,5-difluoro-2-methoxy-phenyl)methyl]-N,2-dimethyl-5-oxo-thiazolo[3,2-a]pyrimidine-3-carboxamide], the EC50 is 8.04 µM.

On to `Cc1sc2nc(Cc3cccc(C#N)c3F)cc(=O)n2c1C1CC1C` (stereo not drawn) [compound 10, 2-fluoro-3-[[2-methyl-3-(2-methylcyclopropyl)-5-oxo-thiazolo[3,2-a]pyrimidin-7-yl]methyl]benzonitrile], for which the concentration for a half-maximal effect (EC50) worked out at 0.471 µM. For `CNC(=O)Cc1c(C)sc2nc(Cc3cccc(C4CC4)c3F)cc(=O)n12` [compound 11, 2-[7-[(3-cyclopropyl-2-fluoro-phenyl)methyl]-2-methyl-5-oxo-thiazolo[3,2-a]pyrimidin-3-yl]-N-methyl-acetamide] the value was 1.14 µM; for `Cc1sc2nc(Oc3cccc(C(F)(F)F)c3)cc(=O)n2c1C1CC1CO` (stereo not drawn) [compound 12, 3-[2-(Hydroxymethyl)cyclopropyl]-2-methyl-7-[3-(trifluoromethyl)phenoxy]thiazolo[3,2-a]pyrimidin-5-one], 2.05 µM. For `CCNC(=O)c1c(C)sc2nc(Cc3cccc(C(F)(F)F)c3F)c(F)c(=O)n12` [compound 13, N-ethyl-6-fluoro-7-[[2-fluoro-3-(trifluoromethyl)phenyl]methyl]-2-methyl-5-oxo-thiazolo[3,2-a]pyrimidine-3-carboxamide] the value was 0.858 µM; for `CNC(=O)c1c(C)sc2nc(Cc3cc(C(F)(F)F)ccc3Cl)cc(=O)n12` [compound 14, 7-[[2-chloro-5-(trifluoromethyl)phenyl]methyl]-N,2-dimethyl-5-oxo-thiazolo[3,2-a]pyrimidine-3-carboxamide], 1.56 µM. With `Cc1sc2nc(Cc3cccc(C#N)c3F)c(F)c(=O)n2c1C(=O)NCC(F)(F)F` [compound 15, 7-[(3-cyano-2-fluoro-phenyl)methyl]-6-fluoro-2-methyl-5-oxo-N-(2,2,2-trifluoroethyl)thiazolo[3,2-a]pyrimidine-3-carboxamide] the figure was 9.02 µM; with `CNC(=O)c1c(C)sc2nc(Cc3cc(F)c(F)cc3Cl)cc(=O)n12` [compound 16, 7-[(2-chloro-4,5-difluoro-phenyl)methyl]-N,2-dimethyl-5-oxo-thiazolo[3,2-a]pyrimidine-3-carboxamide], 15.5 µM; with `CCNC(=O)c1c(C)sc2nc(Cc3cc(F)c(F)cc3CCF)cc(=O)n12` [compound 17, 7-[[4,5-difluoro-2-(2-fluoroethyl)phenyl]methyl]-N-ethyl-2-methyl-5-oxo-thiazolo[3,2-a]pyrimidine-3-carboxamide], 7.04 µM. For `CNC(=O)Cc1c(C)sc2nc(Cn3nc(C(F)(F)F)cc3C3CC3)cc(=O)n12` [compound 18, 2-[7-[[5-cyclopropyl-3-(trifluoromethyl)pyrazol-1-yl]methyl]-2-methyl-5-oxo-thiazolo[3,2-a]pyrimidin-3-yl]-N-methyl-acetamide], the EC50 was 2.25 µM.

As to `CNC(=O)Cc1c(C)sc2nc(Cc3cccc(C(F)(F)F)c3F)cc(=O)n12` [compound 19, 2-[7-[[2-fluoro-3-(trifluoromethyl)phenyl]methyl]-2-methyl-5-oxo-thiazolo[3,2-a]pyrimidin-3-yl]-N-methyl-acetamide], the EC50 came out at 5.45 µM. Regarding `CCNC(=O)c1c(C)sc2nc(Cn3nc(C)cc3Cl)cc(=O)n12` [compound 20, 7-[(5-chloro-3-methyl-pyrazol-1-yl)methyl]-N-ethyl-2-methyl-5-oxo-thiazolo[3,2-a]pyrimidine-3-carboxamide], the EC50 was determined as 10.2 µM.

In the case of `CCNC(=O)c1c(C)sc2nc(Cn3nc(Cl)cc3C)cc(=O)n12` [compound 21, 7-[(3-chloro-5-methyl-pyrazol-1-yl)methyl]-N-ethyl-2-methyl-5-oxo-thiazolo[3,2-a]pyrimidine-3-carboxamide], the half-maximal effective concentration (EC50) was 7.88 µM.

Turning to `CCNC(=O)c1c(C)sc2nc(Cn3nc(Cl)cc3C3CC3)cc(=O)n12` [compound 22, 7-[(3-chloro-5-cyclopropyl-pyrazol-1-yl)methyl]-N-ethyl-2-methyl-5-oxo-thiazolo[3,2-a]pyrimidine-3-carboxamide], the EC50 worked out at 4.13 µM. Regarding `CCNC(=O)c1c(C)sc2nc(Cn3nc(C4CC4)cc3Cl)cc(=O)n12` [compound 23, 7-[(5-chloro-3-cyclopropyl-pyrazol-1-yl)methyl]-N-ethyl-2-methyl-5-oxo-thiazolo[3,2-a]pyrimidine-3-carboxamide], the EC50 amounted to 3.48 µM. With `Cc1sc2nc(Cc3nc(C(F)(F)F)cs3)cc(=O)n2c1C1CC1CO` (stereo not drawn) [compound 24, 3-[2-(Hydroxymethyl)cyclopropyl]-2-methyl-7-[[4-(trifluoromethyl)thiazol-2-yl]methyl]thiazolo[3,2-a]pyrimidin-5-one] the figure was 1.33 µM; with `CCN(Cc1cc(=O)n2c(CC(=O)NC)c(C)sc2n1)c1ccc(F)cc1` [compound 25, 2-[7-[(N-ethyl-4-fluoro-anilino)methyl]-2-methyl-5-oxo-thiazolo[3,2-a]pyrimidin-3-yl]-N-methyl-acetamide], 0.292 µM; with `CCNC(=O)c1c(C)sc2nc(Cn3nc(C(F)(F)F)cc3C)cc(=O)n12` [compound 26, N-ethyl-2-methyl-7-[[5-methyl-3-(trifluoromethyl)pyrazol-1-yl]methyl]-5-oxo-thiazolo[3,2-a]pyrimidine-3-carboxamide], 4.82 µM. For `CCNC(=O)c1c(C)sc2nc(Cn3nc(C)cc3C(F)(F)F)cc(=O)n12` [compound 27, N-ethyl-2-methyl-7-[[3-methyl-5-(trifluoromethyl)pyrazol-1-yl]methyl]-5-oxo-thiazolo[3,2-a]pyrimidine-3-carboxamide] the value was 10.6 µM.

Take `CCNC(=O)c1c(C)sc2nc(Cn3nc(C(F)(F)F)cc3Cl)cc(=O)n12` [compound 28, 7-[[5-Chloro-3-(trifluoromethyl)-1H-pyrazol-1-yl]methyl]-N-ethyl-2-methyl-5-oxo-5H-[1,3]thiazolo[3,2-a]pyrimidine-3-carboxamide]: the EC50 came to 0.388 µM. For `CCNC(=O)c1c(C)sc2nc(Cn3nc(Cl)cc3C(F)(F)F)cc(=O)n12` [compound 29, 7-[[3-chloro-5-(trifluoromethyl)pyrazol-1-yl]methyl]-N-ethyl-2-methyl-5-oxo-thiazolo[3,2-a]pyrimidine-3-carboxamide] the value was 1.76 µM; for `CNC(=O)c1c(C)sc2nc(Cc3cccc(C(F)F)c3F)c(F)c(=O)n12` [compound 30, 7-[[3-(difluoromethyl)-2-fluoro-phenyl]methyl]-6-fluoro-N,2-dimethyl-5-oxo-thiazolo[3,2-a]pyrimidine-3-carboxamide], 2.57 µM. With `CCNC(=O)c1c(C)sc2nc(Cc3cccc(C(F)F)c3F)c(F)c(=O)n12` [compound 31, 7-[[3-(difluoromethyl)-2-fluoro-phenyl]methyl]-N-ethyl-6-fluoro-2-methyl-5-oxo-thiazolo[3,2-a]pyrimidine-3-carboxamide] the figure was 4.17 µM. With `CNC(=O)c1c(C)sc2nc(Cc3ccc4c(c3)CC4)cc(=O)n12` [compound 32, 7-(4-bicyclo[4.2.0]octa-1,3,5-trienylmethyl)-N,2-dimethyl-5-oxo-thiazolo[3,2-a]pyrimidine-3-carboxamide], the EC50 turned out to be 5.95 µM. With `CCNC(=O)c1c(C)sc2nc(Cc3cccc(C4(O)CC4)c3F)cc(=O)n12` [compound 33, N-ethyl-7-[[2-fluoro-3-(1-hydroxycyclopropyl)phenyl]methyl]-2-methyl-5-oxo-thiazolo[3,2-a]pyrimidine-3-carboxamide] the figure was 6.43 µM; with `Cc1sc2nc(Oc3cccc(C(F)(F)F)c3)c(F)c(=O)n2c1C1CC1CO` (stereo not drawn) [compound 34, 6-fluoro-3-[2-(hydroxymethyl)cyclopropyl]-2-methyl-7-[3-(trifluoromethyl)phenoxy]thiazolo[3,2-a]pyrimidin-5-one], 24.5 µM.
